Measurements reported in patent US6593335B1, “Potassium channel openers” (Abbott Laboratories, priority 1997, dated 2003).

Molecular target: potassium channels (Sus scrofa, UniProt F1SR11)
Experiment: Functional potassium channel opening activity in isolated Landrace pig bladder strips (field-stimulated twitch)
Settings: for Landrace Pig Bladder Index: ED50 for P1075 divided by ED50 for the test agonist, averaged over tissues; for Landrace Pig Bladder pD2: negative logarithm of ED50; for Emax: pig, maximal efficacy relative to P1075, field stimulation 0.05Hz, 0.5 milli-seconds at 20 volts
Method: The entire bladder was removed and ed into Krebs Ringer bicarbonate solution (composition, mM: NaCl,; dextrose, 1; KCl, 4.7; […] Propranolol (0.004 ed in all of the assays to block […]. The trigonal and dome […]. Strips 3-5 mm wide and 20 mm long were prepared from the cut in a circular fashion. The mucosal layer was removed. One end ationary glass rod and the other to a Grass FT03 transducer at a basal am. Two parallel platinum electrodes were included in the stationary ide field stimulation of 0.05Hz, 0.5 milli-seconds at 20 volts. […] Tissues were allowed to equilibrate for at least 60 minutes and primed with 80 mM KCl. A control concentration response curve (cumulative) was generated for each tissue using the potassium channel opener […] as the control agonist. […] After a 60 minute rinsing period, a concentration response curve (cumulative) was generated for the test agonist in the same fashion as that used for the control agonist […]. The maximal efficacy of each compound (expressed as % relative to […]) is reported. […] J. Physiol. 235, E97 (1980)), and agonist potencies were expressed as pD2 (the negative logarithm). Agonist potencies were also expressed as an index relative to […]. The index was calculated by dividing the ED50 for […] by the ED50 for the test agonist in a given tissue. Each tissue was used for only one test agonist, and the indices obtained from each tissue were averaged to provide an average index of potency.

| Landrace Pig Bladder Index | Landrace Pig Bladder pD2 | Emax [%] | SMILES |
| --- | --- | --- | --- |
| 0.15 | 6.2 | 96 | O=C1CCCC2=C1C(c1ccc(Cl)c(Cl)c1)C1=C(CCCS1(=O)=O)N2 (stereo not drawn) [Example 2] |
| 0.11 | 6.0 | 85 | O=C1CCCC2=C1C(c1ccc(F)c(Cl)c1)C1=C(CCCS1(=O)=O)N2 (stereo not drawn) [Example 3, 10-(3-chloro-4-fluorophenyl)-3,4,6,7,8,10-hexahydro-2H-thiopyrano [3,2-b]quinolin-9(5H)-one, 1,1-dioxide] |
| 0.18 | 6.2 | 93 | O=C1CCCC2=C1C(c1ccc(F)c(Br)c1)C1=C(CCCS1(=O)=O)N2 (stereo not drawn) [Example 4, 10-(3-bromo-4-fluorophenyl)-3,4,6,7,8,10-hexahydro-2H-thiopyrano [3,2-b]quinolin-9(5H)-one, 1,1-dioxide] |
| 0.0076 | 4.8 | 96 | N#Cc1cccc(C2C3=C(CCCC3=O)NC3=C2S(=O)(=O)CCC3)c1 (stereo not drawn) [Example 5, 10-(3-cyanophenyl)-3,4,6,7,8,10-hexahydro-2H-thiopyrano [3,2-b]quinolin-9(5H)-one, 1,1-dioxide] |
| 0.011 | 5.0 | 100 | O=C1CCCC2=C1C(c1cccc(Cl)c1)C1=C(CCCS1(=O)=O)N2 (stereo not drawn) [Example 16, 10-(3-chlorophenyl)-3,4,6,7,8,10-hexahydro-2H-thiopyrano [3.2-b]quinolin-9(5H)-one, 1,1-dioxide] |
| 0.46 | 6.9 | 98 | O=C1CCC2=C1C(c1ccc(F)c(Br)c1)C1=C(CCCS1(=O)=O)N2 (stereo not drawn) [Example 40, 9-(3-bromo-4-fluorophenyl)-3,4,5,6,7,9-hexahydrocyclopenta[b]thiopyrano [2.3-e]pyridin-8(2H)-one, 1,1-dioxide] |
| 0.41 | 6.6 | 98 | O=C1CCCC2=C1C(c1ccc(F)c(Br)c1)C1=C(CCS1(=O)=O)N2 (stereo not drawn) [Example 43, 9-(3-bromo-4-fluoronhenyl)-2,3,5,6,7,9-hexahydrothieno [3,2-b]quinolin-8(4H)-one, 1,1-dioxide] |
| 0.71 | 7.1 | 100 | O=C1CCC2=C1C(c1ccc(F)c(Cl)c1)C1=C(CCS1(=O)=O)N2 (stereo not drawn) [Example 61, 8-(3-chloro-4-fluorophenyl)-2,3,4,5,6,8-hexahydro-7H-cyclopenta[b]thieno [2,3-e]pyridin-7-one, 1,1-dioxide] |
| 0.57 | 7.0 | 100 | O=C1CCCC2=C1[C@@H](c1ccc(F)c(Br)c1)C1=C(CCS1(=O)=O)N2 [Example 83, (+)-(9R)-9-(3-bromo-4-fluorophenyl)-2,3,5,6,7,9-hexahydrothieno [3.2-b]guinolin-8(4H)-one, 1,1-dioxide] |
| 0.69 | 6.8 | 100 | O=C1CCCC2=C1[C@H](c1ccc(F)c(Br)c1)C1=C(CCS1(=O)=O)N2 [Example 84, (−)-(9S)-9-(3-bromo-4-fluorophenyl)-2,3,5,6,7,9-hexahydrothieno [3,2-b]quinolin-8(4H)-one, 1,1-dioxide] |

Continued, compound first:

| SMILES | Landrace Pig Bladder Index | Landrace Pig Bladder pD2 | Emax [%] |
| --- | --- | --- | --- |
| O=C1CCCC2=C1C(c1cccc([N+](=O)[O-])c1)C1=C(CCCS1(=O)=O)N2 (stereo not drawn) [Example 1, 3,4,6,7,8,10-hexahydro-10-(3-nitrophenyl)-2H-thiopyrano[3,2-b]quinolin-9(5H)-one, 1,1-dioxide] | 0.022 | 5.5 | 100 |
| CC1=C(S(C)(=O)=O)C(c2cc(F)c(F)c(F)c2)C2=C(CCCC2=O)N1 (stereo not drawn) [Example 22, 4-(3,4,5-trifluorophenyl)-4,6,7,8-tetrahydro-2-methyl-3-(methylsulfonyl)-5(1H)-quinolinone] | 0.0069 | 4.5 | 77 |
| CC1=C(S(C)(=O)=O)C(c2ccc(C)c([N+](=O)[O-])c2)C2=C(CCCC2=O)N1 (stereo not drawn) [Example 23, 4,6,7,8-tetrahydro-2-methyl-4-(4-methyl-3-nitrophenyl)-3-(methylsulfonyl)-5(1H)-quinolinone] | 0.0053 | 4.4 | 81 |
| CC1=C(S(C)(=O)=O)C(c2ccc(F)c(Br)c2)C2=C(CCCC2=O)N1 (stereo not drawn) [Example 25, 4-(3-bromo-4-fluorophenyl)-4,6,7,8-tetrahydro-2-methyl-3-(methylsulfonyl)-5(1H)-guinolinone] | 0.038 | 5.4 | 88 |
| CC1=C(S(C)(=O)=O)C(c2cccc([N+](=O)[O-])c2)C2=C(CCCC2=O)N1 (stereo not drawn) [Example 26, 4,6,7,8-tetrahydro-2-methyl-3-(methylsulfonyl)-4-(3-nitrophenyl)-5(1H)-quinolinone] | 0.0099 | 4.5 | 78 |
| N#Cc1cccc(C2C3=C(CCCC3=O)NC3=C2S(=O)(=O)CC3)c1 (stereo not drawn) [Example 30, 9-(3-cyanophenyl)-2,3,5,6,7,9-hexahydrothieno [3.2-b]quinolin-8(4H)-one, 1,1-dioxide] | 0.018 | 5.5 | 99 |
| O=C1CCCC2=C1C(c1ccc(Cl)c([N+](=O)[O-])c1)C1=C(CCS1(=O)=O)N2 (stereo not drawn) [Example 34, 9-(4-chloro-3-nitrophenyl)-2,3,5,6,7,9-hexahydrothieno [3,2-b]quinolin-8(4H)-one, 1,1-dioxide] | 0.32 | 6.8 | 100 |
| CC(=O)C1=C(C)NC2=C(C1c1ccc(Cl)c([N+](=O)[O-])c1)S(=O)(=O)CCC2 (stereo not drawn) [Example 36] | 0.040 | 5.5 | 97 |
| O=C1CCC2=C1C(c1ccc(Cl)c([N+](=O)[O-])c1)C1=C(CCCS1(=O)=O)N2 (stereo not drawn) [Example 38, 9-(4-chloro-3-nitrophenyl)-3,4,5,6,7,9-hexahydrocyclopenta[b]thiopyrano [2.3-e]pyridin-8(2H)-one, 1,1-dioxide] | 0.14 | 6.2 | 98 |
| O=C1CCC2=C1C(c1ccc(Cl)c([N+](=O)[O-])c1)C1=C(CCS1(=O)=O)N2 (stereo not drawn) [Example 44, 8-(4-chloro-3-nitrophenyl)-2,3,4,5,6,8-hexahydro-7H-cyclopenta[b]thieno[2,3-e]pyridin-7-one 1,1-dioxide] | 0.15 | 6.2 | 99 |
| O=[N+]([O-])c1cc(C2C3=C(CCS3(=O)=O)NC3=C2S(=O)(=O)CC3)ccc1Cl [Example 51, 8-(4-chloro-3-nitrophenyl)-2,3,4,5,6,8-hexahydrodithieno [3,2-b:2′,3′-e]pyridine, 1,1 7,7-tetraoxide] | 0.021 | 5.4 | 99 |
| O=S1(=O)CCC2=C1C(c1ccc(F)c(Br)c1)C1=C(CCS1(=O)=O)N2 [Example 53, 8-(3-bromo-4-fluorophenyl)-2,3,4,5,6,8-hexahydrodithieno [3.2-b:2′,3′-e]pyridine, 1,1,7,7-tetraoxide] | 0.17 | 6.6 | 100 |
| O=C1CCC2=C1C(c1cccc([N+](=O)[O-])c1)C1=C(CCS1(=O)=O)N2 (stereo not drawn) [Example 58, 2,3,4,5,6,8-hexahydro-8-(3-nitrophenyl)-7H-cyclopenta[b]thieno [2.3-e]pyridin-7-one, 1,1-dioxide] | 0.026 | 5.3 | 94 |
| O=C1CCC2=C1C(c1csc([N+](=O)[O-])c1)C1=C(CCS1(=O)=O)N2 (stereo not drawn) [Example 69] | 0.15 | 6.2 | 98 |
| O=C1CCC2=C1C(c1ccc(Br)c(Br)c1)C1=C(CCS1(=O)=O)N2 (stereo not drawn) [Example 72] | 0.53 | 6.6 | 97 |
| O=C1CCCC2=C1C(c1cc(Br)ccc1O)C1=C(CCS1(=O)=O)N2 (stereo not drawn) [Example 108, 9-(5-bromo-2-hydroxyphenyl)-2,3,5,6,7,9-hexahydrothieno[3,2-b]quinolin-8(4H)-one 1,1-dioxide] | 0.075 | 4.7 | 98 |
| O=S1(=O)CCC2=C1C(c1ccc(F)c(Br)c1)C=C(C(F)(F)F)N2 (stereo not drawn) [Example 112, 7-(3-bromo-4-fluorophenyl)-5-(trifluoromethyl)-2,3,4,7-tetrahydrothieno [3,2-b]pyridine. 1,1-dioxide] | 0.032 | 5.7 | 99 |
| O=C1CCCC2=C1C(c1cc(Br)c(F)cc1O)C1=C(CCS1(=O)=O)N2 (stereo not drawn) [Example 121, 9-(5-bromo-4-fluoro-2-hydroxyphenyl)-2.35,6,7,9-hexahydrothieno[3.2-b]quinolin-8(4H)-one, 1,1-dioxide] | 0.078 | 6.2 | 100 |
